Experimental data as given in patent US9108983B2, “Pyrrole compounds, a process for their preparation and pharmaceutical compositions containing them” (LES LABORATOIRES SERVIER, priority 2013, dated 2015).
Structures can show the parent of a compound that is named as a salt.

Tests used:
Bcl-2 protein = Bcl-2 protein (histag-Bcl-2, UniProtKB P10415) (Homo sapiens (Human), UniProt P10415); experiment: Inhibition of Bcl-2 by the fluorescence polarisation technique; format: binding; details: incubation for 2 hours, read-out: IC50 (nM) Bcl-2 FP
How it was run: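 In pH 7.4 buffer (Hepes 10 mM, NaCl 150 mM, Tween20 0.05%), test compounds at increasing concentrations competed with a fluorescein peptide (1.00×10^−8 M final) for histag-Bcl-2 (2.50×10^−8 M final). Readout was fluorescence polarisation after a 2 h incubation.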

[1] = tested on: RS4;11 leukaemia tumour line; experiment: In vitro cytotoxicity (Microculture Tetrazolium Assay); format: cell-based; details: Homo sapiens, RS4-11, 48 h, RS4;11 cells, exposed for 48 hours, cell viability; read-out: IC50 (nM) MTT RS4;11
Protocol: The cytotoxicity studies were carried out on the RS4;11 leukaemia tumour line.
The cells are distributed onto microplates and exposed to the test compounds for 48 hours.
The cell viability is then quantified by a colorimetric assay, the Microculture Tetrazolium Assay (Cancer Res., 1987, 47, 939-942).

Sequence of Bcl-2 protein (P10415 whole entry): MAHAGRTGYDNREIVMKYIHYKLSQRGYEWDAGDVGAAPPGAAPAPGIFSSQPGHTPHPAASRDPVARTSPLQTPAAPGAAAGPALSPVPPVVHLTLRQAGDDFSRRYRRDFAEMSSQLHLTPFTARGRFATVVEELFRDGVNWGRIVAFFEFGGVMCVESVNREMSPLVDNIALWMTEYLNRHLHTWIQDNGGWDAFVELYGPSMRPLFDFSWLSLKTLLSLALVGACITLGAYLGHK

Row | SMILES | IC50 (Bcl-2 protein) [nM] | IC50 [1] [nM]
1 | Cc1c(C(=O)N(c2ccc(O)cc2)c2cnc3c(ccn3C)c2)cc(-c2ccccc2C(=O)N2Cc3ccccc3C[C@H]2CN2CCOCC2)n1C [Example 409, N-(4-Hydroxyphenyl)-1,2-dimethyl-N-(1-methyl-1H-pyrrolo[2,3-b]-pyridin-5-yl)-5-(2-{[(3S)-3-(morpholin-4-ylmethyl)-3,4-dihydroisoquinolin-2(1H)-yl]-carbonyl}phenyl)-1H-pyrrole-3-carboxamide hydrochloride] | 12.2 | 41.9
2 | Cc1c(C(=O)N(c2ccc(O)cc2)c2cnc3c(c2)CCN3C)cc(-c2ccccc2C(=O)N2Cc3ccccc3C[C@H]2CN2CCOCC2)n1C [Example 410, N-(4-Hydroxyphenyl)-1,2-dimethyl-N-(1-methyl-2,3-dihydro-1H-pyrrolo[2,3-b]pyridin-5-yl)-5-(2-{[(3S)-3-(morpholin-4-ylmethyl)-3,4-dihydroisoquinolin-2(1H)-yl]carbonyl}phenyl)-1H-pyrrole-3-carboxamide hydrochloride] | 9.9 | 61.6
3 | Cc1c(C(=O)N(c2ccc(O)cc2)c2cnn(C)c2)cc(-c2cc(Cl)ccc2C(=O)N2Cc3ccccc3C[C@H]2C)n1CCN1CCOCC1 [Example 411, 5-(5-Chloro-2-{[(3R)-3-methyl-3,4-dihydroisoquinolin-2(1H)-yl]carbonyl}phenyl)-N-(4-hydroxyphenyl)-2-methyl-N-(1-methyl-1H-pyrazol-4-yl)-1-[2-(morpholin-4-yl)ethyl]-1H-pyrrole-3-carboxamide hydrochloride] | 5.5 | 32.8
4 | Cl.[2H]C([2H])([2H])n1cc(N(C(=O)c2cc(-c3cc(Cl)ccc3C(=O)N3Cc4ccccc4C[C@H]3CN3CCOCC3)n(C)c2C)c2ccc(O)cc2)cn1 [Example 416, 5-(5-Chloro-2-{[(3S)-3-(morpholin-4-ylmethyl)-3,4-dihydroisoquinolin-2(1H)-yl]carbonyl}phenyl)-N-(4-hydroxyphenyl)-1,2-dimethyl-N-[1-(trideuteriomethyl)-1H-pyrazol-4-yl]-1H-pyrrole-3-carboxamide hydrochloride] | 2.9 | 42.5
5 | COc1ccc(-c2cc(C(=O)N(c3ccc(O)cc3)c3cnn(C)c3)c(C)n2C)c(C(=O)N2Cc3ccccc3C[C@H]2CN2CCOCC2)c1 [Example 418, N-(4-Hydroxyphenyl)-5-(4-methoxy-2-{[(3S)-3-(morpholin-4-ylmethyl)-3,4-dihydroisoquinolin-2(1H)-yl]carbonyl}phenyl)-1,2-dimethyl-N-(1-methyl-1H-pyrazol-4-yl)-1H-pyrrole-3-carboxamide hydrochloride] | 10.1 | 159
6 | Cc1c(C(=O)N(c2ccc(O)cc2)c2cnn(C)c2)cc(-c2ccccc2C(=O)N2Cc3ccccc3C[C@H]2CN2CCOCC2)n1C [Example 422, N-(4-Hydroxyphenyl)-1,2-dimethyl-N-(1-methyl-1H-pyrazol-4-yl)-5-(2-{[(3S)-3-(morpholin-4-ylmethyl)-3,4-dihydroisoquinolin-2(1H)-yl]carbonyl}phenyl)-1H-pyrrole-3-carboxamide hydrochloride] | 9.2 | 101

Further lines, with some results ahead:

Row | IC50 (Bcl-2 protein) [nM] | SMILES | IC50 [1] [nM]
7 | 5.4 | COc1ccc(C(=O)N2Cc3ccccc3C[C@H]2CN2CCOCC2)c(-c2cc(C(=O)N(c3ccc(O)cc3)c3cc(C#N)n(C)c3C)c(C)n2C)c1 [Example 408, N-(5-Cyano-1,2-dimethyl-1H-pyrrol-3-yl)-N-(4-hydroxyphenyl)-5-(5-methoxy-2-{[(3S)-3-(morpholin-4-ylmethyl)-3,4-dihydroisoquinolin-2(1H)-yl]carbonyl}phenyl)-1,2-dimethyl-1H-pyrrole-3-carboxamide hydrochloride] | 4.46
8 | 3.1 | Cc1c(N(C(=O)c2cc(-c3cc(Cl)ccc3C(=O)N3Cc4ccccc4C[C@H]3CCCN3CCOCC3)n(C)c2C)c2ccc(O)cc2)cc(C#N)n1C [Example 412, 5-(5-Chloro-2-{[(3R)-3-[3-(morpholin-4-yl)propyl]-3,4-dihydroisoquinolin-2(1H)-yl]carbonyl}phenyl)-N-(5-cyano-1,2-dimethyl-1H-pyrrol-3-yl)-N-(4-hydroxyphenyl)-1,2-dimethyl-1H-pyrrole-3-carboxamide hydrochloride] | 0.398
9 | 3.1 | Cc1c(N(C(=O)c2cc(-c3cc4c(cc3C(=O)N3Cc5ccccc5C[C@H]3CN3CCOCC3)OCCO4)n(C)c2C)c2ccc(O)cc2)cc(C#N)n1C [Example 413, N-(5-Cyano-1,2-dimethyl-1H-pyrrol-3-yl)-N-(4-hydroxyphenyl)-1,2-dimethyl-5-(7-{[(3S)-3-(morpholin-4-ylmethyl)-3,4-dihydroisoquinolin-2(1H)-yl]-carbonyl}-2,3-dihydro-1,4-benzodioxin-6-yl)-1H-pyrrole-3-carboxamide hydrochloride] | 9.43
10 | 3.8 | Cc1c(N(C(=O)c2cc(-c3cc(Cl)ccc3C(=O)N3Cc4ccccc4C[C@H]3CN3CCOCC3)n(C)c2)c2ccc(O)cc2)cc(C#N)n1C [Example 415, 5-(5-Chloro-2-{[(3S)-3-(morpholin-4-ylmethyl)-3,4-dihydroisoquinolin-2(1H)-yl]carbonyl}phenyl)-N-(5-cyano-1,2-dimethyl-1H-pyrrol-3-yl)-N-(4-hydroxyphenyl)-1-methyl-1H-pyrrole-3-carboxamide hydrochloride] | 29.9
11 | 3 | COc1ccc(-c2cc(C(=O)N(c3ccc(O)cc3)c3cc(C#N)n(C)c3C)c(C)n2C)c(C(=O)N2Cc3ccccc3C[C@H]2CN2CCOCC2)c1 [Example 417, N-(5-Cyano-1,2-dimethyl-1H-pyrrol-3-yl)-N-(4-hydroxyphenyl)-5-(4-methoxy-2-{[(3S)-3-(morpholin-4-ylmethyl)-3,4-dihydroisoquinolin-2(1H)-yl]carbonyl}phenyl)-1,2-dimethyl-1H-pyrrole-3-carboxamide hydrochloride] | 11
12 | 2.8 | Cc1c(C(=O)N(c2ccc(O)cc2)c2cccc(C#N)c2)cc(-c2cc(F)ccc2C(=O)N2Cc3ccccc3C[C@H]2CN2CCOCC2)n1C [Example 419, N-(3-Cyanophenyl)-5-(5-fluoro-2-{[(3S)-3-(morpholin-4-ylmethyl)-3,4-dihydroisoquinolin-2(1H)-yl]carbonyl}phenyl)-N-(4-hydroxyphenyl)-1,2-dimethyl-1H-pyrrole-3-carboxamide hydrochloride] | 15.8
13 | 2.5 | Cc1c(N(C(=O)c2cc(-c3cc(F)ccc3C(=O)N3Cc4ccccc4C[C@H]3CN3CCOCC3)n(C)c2C)c2ccc(O)cc2)cc(C#N)n1C [Example 421, N-(5-Cyano-1,2-dimethyl-1H-pyrrol-3-yl)-5-(5-fluoro-2-{[(3S)-3-(morpholin-4-ylmethyl)-3,4-dihydroisoquinolin-2(1H)-yl]carbonyl}phenyl)-N-(4-hydroxyphenyl)-1,2-dimethyl-1H-pyrrole-3-carboxamide hydrochloride] | 3.73
14 | 11.7 | Cc1c(C(=O)N(c2ccc(O)cc2)c2cnn(C3COC3)c2)cc(-c2cc(F)ccc2C(=O)N2Cc3ccccc3C[C@H]2CN2CCOCC2)n1C [Example 423, 5-(5-Fluoro-2-{[(3S)-3-(morpholin-4-ylmethyl)-3,4-dihydroisoquinolin-2(1H)-yl]carbonyl}phenyl)-N-(4-hydroxyphenyl)-1,2-dimethyl-N-[1-(oxetan-3-yl)-1H-pyrazol-4-yl]-1H-pyrrole-3-carboxamide] | 344
